Data published in patent US7618946B2, “Analgesic compounds, extracts containing same and methods of preparation” (Griffith University, priority 2003, dated 2009).
“Also recorded” adds a separate entry of the source.

How the values were obtained:
FCA-rats [1] = experiment: paw pressure test in rat model of inflammatory pain (FCA); format: in vivo, Sprague-Dawley rats; details: i.v. bolus; for dose-response of antinociceptive effect (AUC versus dose): ipsilateral hindpaw, FIG. 68
Description: Adult male Sprague-Dawley rats were housed in a temperature controlled room (21±2° C.) with a 12 h/12 h light/dark cycle and free access to both food and water. Ethical approval for this study was obtained from the Animal Experimentation Ethics Committee of The University of Queensland.
Inflammation of the rat hindpaw was induced by intra-plantar (i.pl.) injection of Freund's Complete Adjuvant (FCA, 0.15 mL) whilst rats were under brief 3% isoflurane: 97% oxygen inhalational anaesthesia. Inflammatory pain was assessed using the paw pressure test (see below for details). The test compounds were administered on either day 5 or day 6 following i.pl. FCA administration.
Jugular vein cannulation was performed whilst rats were anaesthetised with 3% isoflurane: 97% O2 inhalational anaesthesia maintained using a calibrated Trilene vapouriser. Polyethylene cannulae (previously filled with heparinised saline) were implanted into the right common jugular vein for i.v. drug dosing. Cannulae were exteriorized by subcutaneous (s.c.) tunneling to an incision made in the interscapular area, and protected by a stainless steel spring, the base of which was positioned in a subcutaneous pocket between the scapulae. Incisions were closed with sterile silk sutures. After surgery, rats were housed singly in metabolic cages and were allowed to recover post-operatively for a minimum of 2 h before further experimentation. Food and water were available ad libitum during the recovery period.
Each of the compounds F70.3.2 and F70.3.6 were dissolved in sterile saline. The compounds of interest were administered initially in a dose of 0.01 mg/kg in an injection volume of 0.5 mL. The other i.v. doses administered in this preliminary study were as follows:
Control rats received bolus doses of i.v. saline. Antinociceptive Testing: Paw Pressure Test
For the paw pressure test, rats were gently restrained under a towel, and incremental mechanical pressure (maximum=250 g) was applied to the dorsal surface of the hindpaw. The pressure required to elicit paw withdrawal, the paw pressure threshold (PPT), was determined. The mean of 3 consecutive measurements, separated by 10 s, was determined. The same procedure was then performed on the contralateral side with the sequence of sides being alternated to preclude order effects. Similarly, rats were gently restrained under a towel for the quantification of paw volumes using a plethysmometer.
Following administration of i.v. bolus doses of each of the test compounds (F70.3.2 and F70.3.6), paw withdrawal thresholds (g) were normalized by subtraction of the individual baseline PWT values quantified immediately prior to drug administration. The area under the normalized PWT versus time (AUC) was calculated using the trapezoidal rule. Dose-response curves were constructed by plotting the AUC values versus the i.v. dose for each of F70.3.2 and F70.3.6.

FCA-rats [2] = experiment: side effects observed after i.v. bolus doses in FCA-rats; format: in vivo, Sprague-Dawley rats; set-up: key to Intensity: 0 = none; 1 = mild; 2 = moderate; 3 = severe; 4 = extreme
Description: Each of the compounds F70.3.2 and F70.3.6 were dissolved in sterile saline. The compounds of interest were administered initially in a dose of 0.01 mg/kg in an injection volume of 0.5 mL. The other i.v. doses administered in this preliminary study were as follows: […]

Male Quackenbush mice = experiment: mouse formalin assay; format: in vivo
Description: The formalin assay involves the subcutaneous injection of a small amount of formalin into the fore or hind paw of a rat or mouse and the behavioural response to this injection is recorded as a measure of pain response.
The formalin assay was preformed on male mice using morphine, and other compounds of interest, as an analgesic, to test the viability and reliability of the assay as a means of measuring pain response in mice.
Male Quackenbush mice weighing 25-35 g were used. They were housed in colony cages (400×300×130 mm; Wiretainers) with ad libitum access to food (standard rat/mouse pellets; Norco Feeds) and water. For short term storage a maximum of 15-16 mice were housed per cage while for longer periods this number was reduced to less than 10 mice per cage. Bedding material was wood shavings or more commonly recycled paper pellets (Breeders Choice).
Formalin (Ajax) was supplied as solution of approximately 37.5% formaldehyde containing 10% methanol as a preservative. […]
Morphine and other compounds of interest were injected in a volume of 10 mL/kg intraperitoneally (ip) 30 minutes prior to formalin administration. […] The sole behavioural response recorded was the amount of time the animal spent biting or licking the injected paw or leg per 5 minute block was recorded. […]
Using this value a percentage pain inhibition can be calculated using the formula:—

[3] = cited from earlier work; for inhibition of acetic acid induced writhing: 10 and 30 mg/kg (sc) [56]; for ED50: acetic acid writhing test [52]
mice [4] = details: cited from earlier work; for analgesia in both phases of the formalin test: [61]; for response in both early and late phases: known analgesics [61]; for effect on late phase: anti-inflammatory compounds and steroids [61]
mice [5] = details: mice [59]; cited from earlier work
mice [6] = details: mice [59]; cited from earlier work; remark: listed apart in the source
[7] = i.v. 0.005 mg/kg, Apnoea, Table 19
[8] = i.v. 0.02 mg/kg, Apnoea, Table 19
[9] = i.v. 0.02 mg/kg, Staring, Table 19
[10] = i.v. 0.005 mg/kg, Body shaking, Table 20
[11] = i.v. 0.01 mg/kg, Body shaking, Table 20
[12] = i.v. 0.02 mg/kg, Staring, Table 20
[13] = i.v. 0.05 mg/kg, Apnoea, Table 20
[14] = i.v. 0.05 mg/kg, Staring, Table 20

Compound: CC(=O)OCC12C(O)CC3(C)C(=CCC4C5(C)CCC(OC6OC(C(=O)O)C(O)C(OC7OCC(O)C(O)C7O)C6OC6OC(CO)C(O)C(O)C6O)C(C)(C)C5CCC43C)C1CC(C)(C)C(OC(=O)c1ccccc1)C2O [Compound F70.3.2, 3-O-β-D-xylopyranosyl(1→3)-[β-D-galactopyranosyl(1→2)]-β-D-glucuronopyranosyl-21-O-benzoyl-28-O-acetyl barringtogenol C]
- antinociception, contralateral (non-inflamed) hindpaw (FCA-rats [1]): absence of antinociception
- antinociception, ipsilateral (inflamed) hindpaw (paw withdrawal threshold) (FCA-rats [1]; FIG. 65): dose-related increase in the antinociceptive potency
- dose-response of antinociceptive effect (AUC versus dose) (FCA-rats [1]): distinct increase and then plateau
- Duration (FCA-rats [2]; [7]): 0.5 min
- Intensity (FCA-rats [2]; [7]): 1
- No of rats observed with side-effect (FCA-rats [2]; [7]): 1/3
- Onset (FCA-rats [2]; [7]): 180 min
- Side effect (FCA-rats [2]; i.v. 0.005 mg/kg, Table 19): Apnoea
- Duration (FCA-rats [2]; [8]): 15 min
- Intensity (FCA-rats [2]; [8]): 1
- No of rats observed with side-effect (FCA-rats [2]; [8]): 1/3
- Onset (FCA-rats [2]; [8]): 30 min
- Duration (FCA-rats [2]; [9]): 15 min
- Intensity (FCA-rats [2]; [9]): 1
- No of rats observed with side-effect (FCA-rats [2]; [9]): 1/3
- Onset (FCA-rats [2]; [9]): 30 min
- Side effect (FCA-rats [2]; i.v. 0.02 mg/kg, Table 19, 0.02 mg/kg): Apnoea; also recorded: Staring

Compound: CC(=O)OC1C(OC2OCC(OC(=O)c3ccccc3)C(OC(=O)C(C)C(C)OC(=O)c3ccccc3)C2O)C(C)(C)CC2C3=CCC4C5(C)CCC(OC6OC(C(=O)O)C(O)C(OC7OCC(O)C(O)C7O)C6OC6OC(CO)C(O)C(O)C6O)C(C)(C)C5CCC4(C)C3(C)CC(O)C21CO [Compound F70.3.6, 3-O-β-D-xylopyranosyl(1→3)-[β-D-galactopyranosyl(1→2)]-β-D-glucuronopyranosyl-21-O-[3-(3-benzoyl-2-methylbutanoyl)-4-benzoyl-α-L-arabinopyranosyl]-22-O-acetyl barringtogenol C]
- antinociception, contralateral (non-inflamed) hindpaw (FCA-rats [1]): absence of antinociception
- antinociception, ipsilateral hindpaw (FCA-rats [1]; dose range 0.002-0.01 mg/kg, FIG. 66): dose-related increase in the antinociceptive potency
- antinociceptive response, ipsilateral hindpaw, on further increases in dose (FCA-rats [1]; doses above 0.01 mg/kg): decreased rather than an increased antinociceptive response
- dose-response of antinociceptive effect (AUC versus dose) (FCA-rats [1]): distinct increase and then plateau
- Duration (FCA-rats [2]; [10]): 5 min
- Intensity (FCA-rats [2]; [10]): 1
- No of rats observed with side-effect (FCA-rats [2]; [10]): 1/3
- Onset (FCA-rats [2]; [10]): 15 min
- Side effect (FCA-rats [2]; i.v. 0.005 mg/kg, Table 20): Body
- Duration (FCA-rats [2]; [11]): 5 min
- Intensity (FCA-rats [2]; [11]): 1
- No of rats observed with side-effect (FCA-rats [2]; [11]): 1/3
- Onset (FCA-rats [2]; [11]): 30 min
- Side effect (FCA-rats [2]; i.v. 0.01 mg/kg, Table 20): Body
- Duration (FCA-rats [2]; [12]): 15 min
- Intensity (FCA-rats [2]; [12]): 1
- No of rats observed with side-effect (FCA-rats [2]; [12]): 1/3
- Onset (FCA-rats [2]; [12]): 45 min
- Side effect (FCA-rats [2]; i.v. 0.02 mg/kg, Table 20): Staring
- Duration (FCA-rats [2]; [13]): 30 min
- Intensity (FCA-rats [2]; [13]): 1
- No of rats observed with side-effect (FCA-rats [2]; [13]): 1/1
- Onset (FCA-rats [2]; [13]): 5 min
- Duration (FCA-rats [2]; [14]): 15 min
- Intensity (FCA-rats [2]; [14]): 1
- No of rats observed with side-effect (FCA-rats [2]; [14]): 1/1
- Onset (FCA-rats [2]; [14]): 30 min
- Side effect (FCA-rats [2]; i.v. 0.05 mg/kg, Table 20, 0.05 mg/kg, onset 5 min, lasting 30 min): Apnoea
- Side effect (FCA-rats [2]; i.v. 0.05 mg/kg, Table 20, 0.05 mg/kg, onset 30 min, lasting 15 min): Staring

Compound: C[S+](C)[O-] [DMSO control, dimethyl sulfoxide]
- reduction of pain response by DMSO (Male Quackenbush mice; high dose (5%) DMSO): 57%

Compound: CC1(C)CC[C@]2(C(=O)O[C@@H]3O[C@H](CO)[C@@H](O)[C@H](O)[C@H]3O)CC[C@]3(C)C(=CC[C@@H]4[C@@]5(C)CC[C@H](O[C@@H]6O[C@H](CO)[C@@H](O)[C@H](O)[C@H]6O)[C@@](C)(C(=O)O)[C@@H]5CC[C@]43C)[C@@H]2C1 [Dianoside A]
- inhibition of acetic acid induced writhing [3]: significantly inhibit

Compound: CC1(C)CC[C@]2(C(=O)O[C@@H]3O[C@H](CO[C@@H]4O[C@H](CO)[C@@H](O)[C@H](O)[C@H]4O)[C@@H](O)[C@H](O[C@@H]4O[C@H](CO)[C@@H](O)[C@H](O)[C@H]4O)[C@H]3O)CC[C@]3(C)C(=CC[C@@H]4[C@@]5(C)CC[C@H](O[C@@H]6O[C@H](CO)[C@@H](O)[C@H](O)[C@H]6O)[C@@](C)(C(=O)O)[C@@H]5CC[C@]43C)[C@@H]2C1 [Dianoside B]
- inhibition of acetic acid induced writhing [3]: significantly inhibit

Compound: CC(=O)Oc1ccccc1C(=O)O [aspirin]
- analgesia in both phases of the formalin test (mice [4]): analgesic in a dose dependent manner in both phases
- ED50 [3]: 125 mg/kg
- inhibition of acetic acid induced writhing (mice [5]): 80%
- inhibition of p-phenylquinone induced writhing (mice [6]): 85%

Compound: COc1ccc2c3c1O[C@H]1[C@@H](O)C=C[C@H]4[C@@H](C2)N(C)CC[C@@]341 [codeine]
- response in both early and late phases (mice [4]): can be reduced

Compound: C[C@]12CCC(=O)C=C1CC[C@@H]1[C@@H]2[C@@H](O)C[C@@]2(C)[C@H]1CC[C@]2(O)C(=O)CO [hydrocortisone]
- effect on late phase (mice [4]): affected

Compound: COc1ccc2c(c1)c(CC(=O)O)c(C)n2C(=O)c1ccc(Cl)cc1 [indomethacin]
- effect on late phase (mice [4]): affected

Compound: CN1CC[C@]23c4c5ccc(O)c4O[C@H]2[C@@H](O)C=C[C@H]3[C@H]1C5 [morphine]
- ED50 (Male Quackenbush mice; Mus musculus, ip, read-out: ED50 (morphine dose response curve, pain inhibition)): 4.8 mg/kg
- analgesia induced (mice [4]; at 6 mg/kg [64]): almost complete analgesia
- response in both early and late phases (mice [4]): can be reduced
- ED50, entire experimental period (mice [4]; subcutaneous, entire experimental period [63]): 4.8 mg/kg

Compound: COc1ccc2cc([C@H](C)C(=O)O)ccc2c1 [naproxen]
- effect on late phase (mice [4]): affected

Compound: CN1CCOC(c2ccccc2)c2ccccc2C1 (centres unmarked) [nefopam]
- response in both early and late phases (mice [4]): can be reduced

Compound: Cc1ccccc1C(OCCN(C)C)c1ccccc1 (centres unmarked) [orphendarine]
- response in both early and late phases (mice [4]): can be reduced

Compound: CC(=O)Nc1ccc(O)cc1 [paracetamol]
- analgesia in both phases of the formalin test (mice [4]): analgesic in a dose dependent manner in both phases

Compound: barbatoside A
- ED50 [3]: 95 mg/kg
